Activity calls are given as the source filed them.
Legend:
Bcl-2-like protein 10 = Bcl-2-like protein 10 (Homo sapiens, UniProt Q9HD36); experiment: Concentration-response of Bcl-B inhibitors by biochemical FP with TR3 (AID 1243); assay type: functional
[1] = A Cell Based Secondary Assay To Explore Cytotoxicity of Compounds that Sensitize Mycobacterium Tuberculosis to Beta-Lactam Antibiotics.; assay type: functional
[2] = target: Melanin-concentrating hormone receptor 1 (Homo sapiens, UniProt Q99705); experiment: Fluorescence-based counterscreen for antagonists of the G-protein coupled receptor 7 (GPR7): cell-based high throughput dose response assay to identify antagonists of the melanin-concentrating hormone receptor 1 (MCHR1).; assay type: functional
[3] = NIH-3T3 fibroblast cytotoxicity, dose response, cytotoxicity control, cell-based, fluorescence, Alamar Blue, secondary assay (AID 2327); assay type: functional;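 further: NIH-3T3 mouse fibroblasts cultured with fluconazole at 8 µg/mL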
[4] = target: Serine/threonine-protein phosphatase PP1-alpha catalytic subunit (Homo sapiens, UniProt P62136); experiment: inhibition of protein phosphatase 1 activity – biochemical, fluorescence, dose response (AID 2403);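 further: phosphatase turnover of OMFP into fluorescent 3-O-methylfluorescein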
[5] = fluconazole-exposed Candida albicans growth modulators – fluorescence, retest, confirmation (AID 2467); assay type: functional, cell-based
[6] = target: Serine/threonine-protein phosphatase (Homo sapiens, UniProt Q9BPW0); experiment: Counterscreen for inhibitors of PP1: fluorescence-based biochemical high throughput dose response assay to identify inhibitors of Protein Phosphatase 5 (PP5). [Related pubchem assays: 2034 (Summary (PP5 inhibitors)), 1987 (PP5 inhibitors in singlate), 2235 (PP1 inhibitors in singlate)]
HEK293 = experiment: Fluorescence-based counterscreen for potentiators or agonists of NPY-Y2: cell-based high-throughput dose response assay to identify inhibitors of cyclic nucleotide gated ion channel (CNGC) activity. In this assay, the parental HEK293 cell line transfected with a cyclic-nucleotide gated ion channel (CNGC)-based cAMP sensor is used to measure inhibition of isoproterenol-induced CNGC activity by test compound.; assay type: functional; conditions: Homo sapiens;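 further: stimulus is 1 µM isoproterenol at EC100 plus PDE inhibitor Ro 20-1724 at 25 µM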
[7] = target: Neuropeptide Y receptor type 2 (Homo sapiens, UniProt P49146); experiment: Fluorescence-based cell-based high-throughput dose response assay for agonists of NPY-Y2. [Related pubchem assays: 1703 (Screening assay (CNGC inhibitors).), 1359 (Screening assay (NPY-Y2 potentiators or agonists).), 1304 (Screening assay (NPY-Y1 potentiators or agonists).), 1710 (Screening assay (NPY-Y2 agonists).), 1791 (Summary AID.)]; assay type: functional
[8] = target: Neuropeptide Y receptor type 1 (Homo sapiens, UniProt P25929); experiment: Fluorescence-based counterscreen for agonists of NPY-Y2: cell-based high-throughput dose response assay for agonists of NPY-Y1.; assay type: functional
[9] = target: T1, Heat shock factor protein 1 (Mus musculus, UniProt P38532); experiment: enhancement of HSF1-driven luciferase signal – cell-based, NIH3T3, luminescence, dose retest, confirmation (AID 435004); assay type: functional;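 further: stress induced by proteasome inhibitor MG132 added 30 min after compound; luciferase reporter driven by HSF1 response element in NIH3T3 cells; actives raise luminescence as potentiators of the MG132 stress response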
T1 sequence (P38532 whole entry): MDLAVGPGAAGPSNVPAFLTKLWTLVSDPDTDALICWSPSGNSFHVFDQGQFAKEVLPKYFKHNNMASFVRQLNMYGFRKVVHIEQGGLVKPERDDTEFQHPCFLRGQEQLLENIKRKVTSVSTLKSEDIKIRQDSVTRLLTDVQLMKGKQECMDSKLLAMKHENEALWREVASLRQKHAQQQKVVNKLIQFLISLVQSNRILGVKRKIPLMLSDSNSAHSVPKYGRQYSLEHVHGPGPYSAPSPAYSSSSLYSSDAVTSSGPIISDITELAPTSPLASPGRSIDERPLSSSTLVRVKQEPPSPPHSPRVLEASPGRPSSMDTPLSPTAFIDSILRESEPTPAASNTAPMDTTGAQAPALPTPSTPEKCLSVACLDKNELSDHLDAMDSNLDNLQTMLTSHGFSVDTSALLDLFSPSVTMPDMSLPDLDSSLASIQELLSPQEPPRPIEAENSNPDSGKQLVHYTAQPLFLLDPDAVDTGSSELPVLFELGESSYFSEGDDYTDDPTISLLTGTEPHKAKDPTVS

Chain of Neuropeptide Y receptor type 2 (P49146 whole entry): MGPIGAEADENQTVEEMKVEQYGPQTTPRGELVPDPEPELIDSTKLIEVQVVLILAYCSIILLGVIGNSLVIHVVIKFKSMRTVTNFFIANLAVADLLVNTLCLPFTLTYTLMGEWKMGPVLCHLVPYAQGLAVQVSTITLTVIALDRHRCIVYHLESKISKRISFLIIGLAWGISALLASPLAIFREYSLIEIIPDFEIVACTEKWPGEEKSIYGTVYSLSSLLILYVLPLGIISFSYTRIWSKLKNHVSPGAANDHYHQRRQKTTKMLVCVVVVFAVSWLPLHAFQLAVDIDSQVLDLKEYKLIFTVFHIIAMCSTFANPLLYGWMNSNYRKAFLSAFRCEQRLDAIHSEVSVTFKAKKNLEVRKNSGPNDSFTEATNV
Chain of Melanin-concentrating hormone receptor 1 (Q99705 whole entry): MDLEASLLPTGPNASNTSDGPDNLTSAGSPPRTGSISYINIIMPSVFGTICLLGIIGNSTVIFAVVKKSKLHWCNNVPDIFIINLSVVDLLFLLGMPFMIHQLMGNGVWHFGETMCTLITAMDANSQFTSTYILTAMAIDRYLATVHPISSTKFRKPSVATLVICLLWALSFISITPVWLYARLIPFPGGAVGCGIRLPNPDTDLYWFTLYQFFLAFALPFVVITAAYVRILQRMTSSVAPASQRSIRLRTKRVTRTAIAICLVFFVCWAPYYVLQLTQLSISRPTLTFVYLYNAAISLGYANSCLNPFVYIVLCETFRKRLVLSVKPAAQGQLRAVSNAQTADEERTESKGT
Chain of Bcl-2-like protein 10 (Q9HD36 whole entry): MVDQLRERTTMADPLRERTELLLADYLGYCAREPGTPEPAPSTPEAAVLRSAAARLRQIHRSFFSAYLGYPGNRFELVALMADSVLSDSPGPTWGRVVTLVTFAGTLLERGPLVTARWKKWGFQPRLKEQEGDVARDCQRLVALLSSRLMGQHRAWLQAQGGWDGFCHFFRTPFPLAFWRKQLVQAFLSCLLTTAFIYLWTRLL
Chain of Serine/threonine-protein phosphatase (Q9BPW0 whole entry): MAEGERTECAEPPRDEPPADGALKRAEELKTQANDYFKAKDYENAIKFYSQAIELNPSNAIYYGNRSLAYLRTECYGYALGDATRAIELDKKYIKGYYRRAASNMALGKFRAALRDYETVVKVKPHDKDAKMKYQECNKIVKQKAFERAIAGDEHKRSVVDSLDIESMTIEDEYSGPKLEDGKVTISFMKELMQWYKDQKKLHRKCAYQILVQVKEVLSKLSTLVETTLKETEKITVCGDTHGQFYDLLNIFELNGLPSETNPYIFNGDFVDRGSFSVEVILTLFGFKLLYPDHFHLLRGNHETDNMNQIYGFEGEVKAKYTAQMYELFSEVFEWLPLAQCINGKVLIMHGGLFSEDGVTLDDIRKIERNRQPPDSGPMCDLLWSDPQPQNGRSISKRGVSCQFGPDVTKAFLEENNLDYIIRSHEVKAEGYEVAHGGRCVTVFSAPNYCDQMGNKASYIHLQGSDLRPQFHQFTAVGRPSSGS
Chain of Serine/threonine-protein phosphatase PP1-alpha catalytic subunit (P62136 whole entry): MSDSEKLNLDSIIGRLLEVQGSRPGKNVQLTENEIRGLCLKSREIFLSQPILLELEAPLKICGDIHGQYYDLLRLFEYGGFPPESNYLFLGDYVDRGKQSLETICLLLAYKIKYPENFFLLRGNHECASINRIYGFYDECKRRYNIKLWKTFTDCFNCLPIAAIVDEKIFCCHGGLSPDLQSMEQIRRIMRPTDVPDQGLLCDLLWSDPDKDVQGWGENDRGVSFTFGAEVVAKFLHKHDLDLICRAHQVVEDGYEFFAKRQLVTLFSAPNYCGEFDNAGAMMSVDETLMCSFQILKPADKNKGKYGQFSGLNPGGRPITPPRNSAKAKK
Chain of Neuropeptide Y receptor type 1 (P25929 whole entry): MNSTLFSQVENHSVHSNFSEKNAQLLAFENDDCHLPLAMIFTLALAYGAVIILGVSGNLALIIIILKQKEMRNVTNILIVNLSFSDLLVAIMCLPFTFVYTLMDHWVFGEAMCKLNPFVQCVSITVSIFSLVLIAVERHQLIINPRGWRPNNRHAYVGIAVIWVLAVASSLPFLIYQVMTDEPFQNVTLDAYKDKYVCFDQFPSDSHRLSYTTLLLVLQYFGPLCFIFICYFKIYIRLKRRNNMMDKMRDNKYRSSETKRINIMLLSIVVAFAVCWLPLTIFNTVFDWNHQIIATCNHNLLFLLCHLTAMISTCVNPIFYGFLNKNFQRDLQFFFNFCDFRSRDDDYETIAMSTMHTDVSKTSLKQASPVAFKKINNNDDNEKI

**Q.** Which EC50 (Bcl-2-like protein 10) does the source give for `CN(C)c1ccc(NC(=O)/C=C\C(=O)O)cc1` here?
**A.** 20.4 µM (active)

**Q.** Which CC50 [1] does the source give for `O=S(=O)(Nc1cccc(-c2ccc(N3CCCCCC3)nn2)c1)c1ccccc1Cl` here?
**A.** > 40 µM (active)

**Q.** For `CCC(C)CCN1C(Nc2ccccc2)=NC[C@@H]1Cc1ccccc1` (stereo partly specified), which IC50 [2] is on record?
**A.** 12.5 µM (not active)

**Q.** Which results are given for `COc1cnc(-c2ccccn2)nc1Sc1cccc(Cl)c1`?
**A.** EC50 [3]: > 160 µM (inactive); IC50 [4]: 4.75 µM (active); EC50 [5]: > 38 µM (not active); IC50 [6]: > 67 µM (not active)

**Q.** For `COCCCNC(=O)c1cnc2ccc(S(=O)(=O)N3CCc4ccccc43)cc2c1O`, which EC50 (HEK293) is on record?
**A.** > 35.4 µM (not active)

**Q.** And the EC50 [7]?
**A.** > 35.4 µM (not active)

**Q.** And the EC50 [8]?
**A.** > 35.4 µM (not active)

**Q.** And the EC50 [9]?
**A.** > 260 µM (inactive)
